System: Japanese medaka (Oryzias latipes)
Assay: Fish short-term reproduction assay (FSTRA, OECD TG229), 21-day flow-through exposure
Conditions: for Fertility rate (%) / Mortality (%) Female / Mortality (%) Male / Number of fertilized eggs / Number of total eggs / SSC Female / VTG (ng/mg of liver) Female / VTG (ng/mg of liver) Male / SSC Male: 21 days; for GSI Female / GSI Male / HSI Female / HSI Male / Length Female / Length Male / Weight Female / Weight Male: at completion of exposure; for effect on fecundity (number of total eggs), in words: within the test concentrations
How it was run: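 Run to OECD TG229: mature NIES-R medaka pairs (3♂/3♀ per vessel, 4 vessels per treatment plus dilution water control) were dosed by continuous flow-through for 21 days. Test concentrations were spaced 2- to 5-fold. Daily spawned eggs were counted under the microscope for fertilized versus unfertilized.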

Cc1cc(O)ccc1Cl [CMP, 4‐Chloro‐3‐methylphenol]
LOEC on VTG induction in male (in molarity) (hepatic VTG, 21-day exposure): 7.4 µM | LOEC (in molarity) for male VTG: times higher than that of E2 (in vivo): 110,000 times | Fertility rate (%) (measured conc. 108 μg/L): 94% | Mortality (%) Female (measured conc. 108 μg/L): 0% | Mortality (%) Male (measured conc. 108 μg/L): 0% | Number of fertilized eggs (measured conc. 108 μg/L): 24 | Number of total eggs (measured conc. 108 μg/L): 26 ± 3.2 /female/day | SSC Female (measured conc. 108 μg/L): 0 ± 0 | VTG (ng/mg of liver) Female (measured conc. 108 μg/L): 2,610 ± 265 ng/mg of liver | VTG (ng/mg of liver) Male (measured conc. 108 μg/L): 2.9 ± 4.4 ng/mg of liver | GSI Female (measured conc. 108 μg/L): 9.9% | GSI Male (measured conc. 108 μg/L): 0.80% | HSI Female (measured conc. 108 μg/L): 3.9% | HSI Male (measured conc. 108 μg/L): 1.9% | Length Female (measured conc. 108 μg/L): 36.5 mm | Length Male (measured conc. 108 μg/L): 36.0 mm | Weight Female (measured conc. 108 μg/L): 565 mg | Weight Male (measured conc. 108 μg/L): 498 mg | Fertility rate (%) (measured conc. 350 μg/L): 94% | Mortality (%) Female (measured conc. 350 μg/L): 0% | Mortality (%) Male (measured conc. 350 μg/L): 0% | Number of fertilized eggs (measured conc. 350 μg/L): 24 | Number of total eggs (measured conc. 350 μg/L): 25 ± 3.9 /female/day | SSC Female (measured conc. 350 μg/L): 0 ± 0 | VTG (ng/mg of liver) Female (measured conc. 350 μg/L): 2,650 ± 214 ng/mg of liver | VTG (ng/mg of liver) Male (measured conc. 350 μg/L): 9.9 ± 18.3 ng/mg of liver | GSI Female (measured conc. 350 μg/L): 9.8% | GSI Male (measured conc. 350 μg/L): 0.68% | HSI Female (measured conc. 350 μg/L): 4.4% | HSI Male (measured conc. 350 μg/L): 2.4% | Length Female (measured conc. 350 μg/L): 35.4 mm | Length Male (measured conc. 350 μg/L): 36.4 mm | Weight Female (measured conc. 350 μg/L): 509 mg | Weight Male (measured conc. 350 μg/L): 529 mg | Fertility rate (%) (measured conc. 1,060 μg/L): 93% | Mortality (%) Female (measured conc. 1,060 μg/L): 8.3% | Mortality (%) Male (measured conc. 1,060 μg/L): 0% | Number of fertilized eggs (measured conc. 1,060 μg/L): 23 | Number of total eggs (measured conc. 1,060 μg/L): 25 ± 2.3 /female/day | SSC Female (measured conc. 1,060 μg/L): 0 ± 0 | VTG (ng/mg of liver) Female (measured conc. 1,060 μg/L): 3,020 ± 702 ng/mg of liver | VTG (ng/mg of liver) Male (measured conc. 1,060 μg/L): 33.8 ± 37.0 ng/mg of liver | GSI Female (measured conc. 1,060 μg/L): 9.9% | GSI Male (measured conc. 1,060 μg/L): 0.74% | HSI Female (measured conc. 1,060 μg/L): 3.9% | HSI Male (measured conc. 1,060 μg/L): 2.0% | Length Female (measured conc. 1,060 μg/L): 35.2 mm | Length Male (measured conc. 1,060 μg/L): 36.3 mm | Weight Female (measured conc. 1,060 μg/L): 509 mg | Weight Male (measured conc. 1,060 μg/L): 505 mg | effect on fecundity (number of total eggs), in words (21-day exposure): No effect

C#C[C@]1(O)CC[C@H]2[C@@H]3CCc4cc(O)ccc4[C@H]3CC[C@@]21C [EE2, 17α‐Ethynylestradiol]
LOEC on VTG induction in male (in molarity) (hepatic VTG, 21-day exposure): 6e-05 µM | LOEC for VTG induction in males (hepatic VTG, 21-day exposure, measured conc.): 17.8 ng/L | effect on male GSI, in words (highest concentration, 21-day exposure): significant decreasing | LOEC on male VTG induction: times smaller than the LOEC for CMP (in vivo): more than 8,000 times | Fertility rate (%) (measured conc. 17.8 ng/L): 84% | Mortality (%) Female (measured conc. 17.8 ng/L): 0% | Mortality (%) Male (measured conc. 17.8 ng/L): 0% | Number of fertilized eggs (measured conc. 17.8 ng/L): 15 | Number of total eggs (measured conc. 17.8 ng/L): 18 ± 2.3 /female/day | SSC Female (measured conc. 17.8 ng/L): 0 ± 0 | SSC Male (measured conc. 17.8 ng/L): 90 ± 8.1 | VTG (ng/mg of liver) Female (measured conc. 17.8 ng/L): 2,170 ± 223 ng/mg of liver | VTG (ng/mg of liver) Male (measured conc. 17.8 ng/L): 68.3 ± 80.4 ng/mg of liver | GSI Female (measured conc. 17.8 ng/L): 10.0% | GSI Male (measured conc. 17.8 ng/L): 0.75% | HSI Female (measured conc. 17.8 ng/L): 4.2% | HSI Male (measured conc. 17.8 ng/L): 2.3% | Length Female (measured conc. 17.8 ng/L): 35.4 mm | Length Male (measured conc. 17.8 ng/L): 35.9 mm | Weight Female (measured conc. 17.8 ng/L): 516 mg | Weight Male (measured conc. 17.8 ng/L): 531 mg | Fertility rate (%) (measured conc. 84.9 ng/L): 88% | Mortality (%) Female (measured conc. 84.9 ng/L): 0% | Mortality (%) Male (measured conc. 84.9 ng/L): 0% | Number of fertilized eggs (measured conc. 84.9 ng/L): 15 | Number of total eggs (measured conc. 84.9 ng/L): 17 ± 4.9 /female/day | SSC Female (measured conc. 84.9 ng/L): 0 ± 0 | SSC Male (measured conc. 84.9 ng/L): 88 ± 5.7 | VTG (ng/mg of liver) Female (measured conc. 84.9 ng/L): 3,840 ± 1,370 ng/mg of liver | VTG (ng/mg of liver) Male (measured conc. 84.9 ng/L): 10,900 ± 3,840 ng/mg of liver | GSI Female (measured conc. 84.9 ng/L): 9.5% | GSI Male (measured conc. 84.9 ng/L): 0.60% | HSI Female (measured conc. 84.9 ng/L): 3.7% | HSI Male (measured conc. 84.9 ng/L): 2.7% | Length Female (measured conc. 84.9 ng/L): 35.8 mm | Length Male (measured conc. 84.9 ng/L): 36.3 mm | Weight Female (measured conc. 84.9 ng/L): 498 mg | Weight Male (measured conc. 84.9 ng/L): 548 mg | Fertility rate (%) (measured conc. 424 ng/L): 73% | Mortality (%) Female (measured conc. 424 ng/L): 8% | Mortality (%) Male (measured conc. 424 ng/L): 33% | Number of fertilized eggs (measured conc. 424 ng/L): 8 | Number of total eggs (measured conc. 424 ng/L): 10 ± 2.8 /female/day | SSC Female (measured conc. 424 ng/L): 0 ± 0 | SSC Male (measured conc. 424 ng/L): 86 ± 6.7 | VTG (ng/mg of liver) Female (measured conc. 424 ng/L): 15,100 ± 4,290 ng/mg of liver | VTG (ng/mg of liver) Male (measured conc. 424 ng/L): 23,900 ± 3,760 ng/mg of liver | GSI Female (measured conc. 424 ng/L): 10.4% | GSI Male (measured conc. 424 ng/L): 0.33% | HSI Female (measured conc. 424 ng/L): 3.8% | HSI Male (measured conc. 424 ng/L): 3.4% | Length Female (measured conc. 424 ng/L): 35.3 mm | Length Male (measured conc. 424 ng/L): 35.1 mm | Weight Female (measured conc. 424 ng/L): 507 mg | Weight Male (measured conc. 424 ng/L): 531 mg | effect on fecundity (number of total eggs), in words (21-day exposure): significant decrease
